The NIST ThermoML archive (doi:10.1016/j.jct.2008.05.005)

Assay: xn = mol fraction of the nth substance listed
Details: Liquid, Vibrating tube method

CCCCn1cc[n+](C)c1.F[B-](F)(F)F [1-butyl-3-methylimidazolium tetrafluoroborate] + CO
Details	mass density [kg/m3]
323.15 K, 10080 kPa, x1 = 0.2626	1052.82
323.15 K, 10090 kPa, x1 = 0.4988	1131.48
323.15 K, 10140 kPa, x1 = 0.1302	960.32
323.15 K, 10160 kPa, x1 = 0.0433	854.23
323.15 K, 10340 kPa, x1 = 0.7501	1173.44
323.15 K, 11020 kPa, x1 = 0.0087	792.32
323.15 K, 15060 kPa, x1 = 0.2626	1056.14
323.15 K, 15120 kPa, x1 = 0.1302	964.14
323.15 K, 15250 kPa, x1 = 0.0433	858.75
323.15 K, 15420 kPa, x1 = 0.4988	1134.4
323.15 K, 15430 kPa, x1 = 0.7501	1176.04
323.15 K, 15440 kPa, x1 = 0.0087	796.64
323.15 K, 15470 kPa, x1 = 0.9102	1192.72
323.15 K, 20070 kPa, x1 = 0.7501	1178.36
323.15 K, 20090 kPa, x1 = 0.9102	1194.92
323.15 K, 20110 kPa, x1 = 0.1302	967.85
323.15 K, 20340 kPa, x1 = 0.0433	863.04
323.15 K, 20430 kPa, x1 = 0.2626	1059.59
323.15 K, 20640 kPa, x1 = 0.0087	801.47
323.15 K, 20740 kPa, x1 = 0.4988	1137.33
323.15 K, 25030 kPa, x1 = 0.4988	1139.71
323.15 K, 25090 kPa, x1 = 0.7501	1180.84
323.15 K, 25120 kPa, x1 = 0.1302	971.44
323.15 K, 25310 kPa, x1 = 0.9102	1197.38
323.15 K, 25630 kPa, x1 = 0.0433	867.24
323.15 K, 25660 kPa, x1 = 0.0087	805.89
323.15 K, 25810 kPa, x1 = 0.2626	1062.91
323.15 K, 29940 kPa, x1 = 0.0433	870.48
323.15 K, 30010 kPa, x1 = 0.4988	1142.47
323.15 K, 30090 kPa, x1 = 0.2626	1065.44
323.15 K, 30410 kPa, x1 = 0.7501	1183.41
323.15 K, 30440 kPa, x1 = 0.1302	975.12
323.15 K, 30450 kPa, x1 = 0.9102	1199.76
323.15 K, 30560 kPa, x1 = 0.0087	809.96
323.15 K, 35210 kPa, x1 = 0.0433	874.21
323.15 K, 35240 kPa, x1 = 0.2626	1068.37
323.15 K, 35240 kPa, x1 = 0.4988	1145.39
323.15 K, 35240 kPa, x1 = 0.7501	1185.69
323.15 K, 35450 kPa, x1 = 0.0087	813.8
323.15 K, 35620 kPa, x1 = 0.1302	978.57
323.15 K, 35860 kPa, x1 = 0.9102	1202.22
323.15 K, 39410 kPa, x1 = 0.0087	816.73
323.15 K, 39620 kPa, x1 = 0.1302	981.14
323.15 K, 39860 kPa, x1 = 0.9102	1204.01
323.15 K, 39890 kPa, x1 = 0.0433	877.31
323.15 K, 39890 kPa, x1 = 0.7501	1187.86
323.15 K, 39970 kPa, x1 = 0.2626	1070.95
323.15 K, 39970 kPa, x1 = 0.4988	1148.04
348.15 K, 340 kPa, x1 = 0.1302	931.46
348.15 K, 420 kPa, x1 = 0.9102	1166.95
348.15 K, 610 kPa, x1 = 0.4988	1107.55
348.15 K, 640 kPa, x1 = 0.0087	757.2
348.15 K, 710 kPa, x1 = 0.0433	821.46
348.15 K, 860 kPa, x1 = 0.2626	1026.35
348.15 K, 870 kPa, x1 = 0.7501	1150.03
348.15 K, 5060 kPa, x1 = 0.2626	1029.49
348.15 K, 5070 kPa, x1 = 0.7501	1152.55
348.15 K, 5310 kPa, x1 = 0.9102	1169.75
348.15 K, 5370 kPa, x1 = 0.0433	826.71
348.15 K, 5410 kPa, x1 = 0.4988	1110.43
348.15 K, 5710 kPa, x1 = 0.1302	936.68
348.15 K, 6020 kPa, x1 = 0.0087	763.72
348.15 K, 10060 kPa, x1 = 0.4988	1113.45
348.15 K, 10060 kPa, x1 = 0.7501	1155.48
348.15 K, 10070 kPa, x1 = 0.9102	1172.42
348.15 K, 10410 kPa, x1 = 0.2626	1033.58
348.15 K, 10670 kPa, x1 = 0.0433	832.4
348.15 K, 10820 kPa, x1 = 0.1302	941.38
348.15 K, 10960 kPa, x1 = 0.0087	769.43
348.15 K, 15090 kPa, x1 = 0.2626	1037.07
348.15 K, 15120 kPa, x1 = 0.0087	774.02
348.15 K, 15120 kPa, x1 = 0.4988	1116.66
348.15 K, 15140 kPa, x1 = 0.1302	945.16
348.15 K, 15150 kPa, x1 = 0.0433	836.97
348.15 K, 15420 kPa, x1 = 0.9102	1175.35
348.15 K, 15870 kPa, x1 = 0.7501	1158.8
348.15 K, 20070 kPa, x1 = 0.4988	1119.71
348.15 K, 20080 kPa, x1 = 0.7501	1161.16
348.15 K, 20110 kPa, x1 = 0.0433	841.77
